Measurements from patent publication US20070004735A1, “Method for inhibiting the replication of herpes viruses” (priority 2003, published 2007).

How the values were obtained:
Type in all cases: cell-based, Human cytomegalovirus
[1] = system: HCMV AD169 clone with mutation in UL86 A689T; test: Susceptibility (IC50) of resistant HCMV AD169 clone A689T; settings: Human betaherpesvirus 5, read-out: IC 50, A689T
Description: (§1) The test compounds are employed as 50 millimolar (mM) solutions in dimethyl sulfoxide (DMSO). Ganciclovir®, Foscarnet® and Cidofovir® are used as reference compounds. After addition of in each case 2 μl of the 50, 5, 0.5 and 0.05 mM DMSO stock solutions to 98 μl portions of cell culture medium in row 2 A-H for duplicate determinations, 1:2 dilutions are carried out with 50 μl portions of medium up to row 11 of the 96-well plate. The wells in rows 1 and 12 each contain 50 μl of medium. 150 μl of a suspension of 1×10^4 cells (human prepuce fibroblasts [NHDF]) are then pipetted into each of the wells (row 1=cell control) and, in rows 2-12, a mixture of HCMV-infected and uninfected NHDF cells (M.O.I.=0.001-0.002), i.e. 1-2 infected cells per 1000 uninfected cells. Row 12 (without substance) serves as virus control. The final test concentrations are 250-0.0005 μM. The plates are incubated at 37° C./5% CO2 for 6 days, i.e. until all the cells are infected in the virus controls (100% cytopathogenic effect [CPE]). The wells are then fixed and stained by adding a mixture of formalin and Giemsa's dye (30 minutes), washed with double-distilled water and dried in a drying oven at 50° C. The plates are then assessed visually using an overhead microscope (plaque multiplier from Technomara).
(§2) For this purpose, NHDF cells are seeded in tissue culture vessels. 5×10^3 cells per well are seeded in 96-well plates and infected with cell-free HCMV AD169 with an moi of 0.03. The infections are cultivated under substance pressure which corresponds to 10 times the IC50 of the substance. Preferably, 30-100 96-well plates inoculated as described are made up. […] Finally, viral stocks are produced as described above and frozen. Serial ten-fold dilution of the virus-infected cells or of the cell culture supernatant of the virus-infected cells is followed by determination of the titer on 24-well plates of confluent NHDF cells after vital staining with neutral red. Finally, the susceptibility to various substances (IC50 determination) is determined as described above.
(§3) The HCMVAD169 mutants selected as described above are grown in vitro on human embryonic prepuce fibroblasts (NHDF cells) under substance pressure (10×IC50 HCMVAD169). After infection of the NHDF cells with a multiplicity of infection (M.O.I) of 0.01, the virus-infected cells are harvested 5-10 days later, and the total DNA is isolated from these cells with the aid of established standard methods (e.g. phenol extraction and ethanol precipitation). Qiagen Sequencing Services (Qiagen, Hilden) determined, after amplification of the viral UL86 gene by PCR, the DNA sequence, which was then transcribed into protein sequence. Compared with the initial strain HCMV AD169, the differences shown in table 2 were detectable in the protein sequence of the major capsid protein (UL86) in the resistant viruses. The IC50 values [μM] of various substances on these mutants compared with the initial strain are likewise indicated. (n.d.=not measured). […] Depending on the nature of the substance, certain mutations lead to various extents of resistance.

[2] = system: HCMV AD169 clone with mutation in UL86 E1320Q; test: Susceptibility (IC50) of resistant HCMV AD169 clone E1320Q; settings: Human betaherpesvirus 5, read-out: IC 50, E1320Q
Description: as §1, §2, §3

[3] = system: wild-type HCMV AD169; test: Susceptibility (IC50) of HCMV AD169 wild-type; settings: Human betaherpesvirus 5, NHDF cells, read-out: IC 50, Wild-type
Description: as §1, §2, §3

[4] = system: HCMV AD169 clone with mutation in UL86 K1338N; test: Susceptibility (IC50) of resistant HCMV AD169 clone K1338N; settings: Human betaherpesvirus 5, read-out: IC 50, K1338N
Description: as §1, §2, §3

[5] = system: HCMV AD169 clone with mutation in UL86 Q1223R; test: Susceptibility (IC50) of resistant HCMV AD169 clone Q1223R; settings: Human betaherpesvirus 5, read-out: IC 50, Q1223R
Description: as §1, §2, §3

[6] = system: HCMV AD169 clone with mutation in UL86 D441N; test: Susceptibility (IC50) of resistant HCMV AD169 clone D441N; settings: Human betaherpesvirus 5, read-out: IC 50, D441N
Description: as §1, §2, §3

[7] = system: HCMV AD169 clone with mutation in UL86 P1189T; test: Susceptibility (IC50) of resistant HCMV AD169 clone P1189T; settings: Human betaherpesvirus 5, read-out: IC 50, P1189T
Description: as §1, §2, §3

[8] = system: HCMV AD169 clone with mutation in UL86 D563N; test: Susceptibility (IC50) of resistant HCMV AD169 clone D563N; settings: Human betaherpesvirus 5, read-out: IC 50, D563N
Description: as §1, §2, §3

[9] = system: HCMV AD169 clone with mutation in UL86 V601M; test: Susceptibility (IC50) of resistant HCMV AD169 clone V601M; settings: Human betaherpesvirus 5, read-out: IC 50, V601M
Description: as §1, §2, §3

[10] = system: HCMV AD169 clone with mutation in UL86 R682H; test: Susceptibility (IC50) of resistant HCMV AD169 clone R682H; settings: Human betaherpesvirus 5, read-out: IC 50, R682H
Description: as §1, §2, §3

[11] = system: HCMV AD169 clone with mutation in UL86 A1226T; test: Susceptibility (IC50) of resistant HCMV AD169 clone A1226T; settings: Human betaherpesvirus 5, read-out: IC 50, A1226T
Description: as §1, §2, §3

[12] = system: HCMV AD169 clone with mutation in UL86 P586T; test: Susceptibility (IC50) of resistant HCMV AD169 clone P586T; settings: Human betaherpesvirus 5, read-out: IC 50, P586T
Description: as §1, §2, §3

| SMILES | IC50 [1] [µM] | IC50 [2] [µM] | IC50 [3] [µM] | IC50 [4] [µM] | IC50 [5] [µM] | IC50 [6] [µM] | IC50 [7] [µM] | IC50 [8] [µM] | IC50 [9] [µM] | IC50 [10] [µM] | IC50 [11] [µM] | IC50 [12] [µM] |
| --- | --- | --- | --- | --- | --- | --- | --- | --- | --- | --- | --- | --- |
| CC1(C)CC(=O)NN=C1c1cccc(NC(=O)Nc2ccc(F)cc2F)c1 [Example 1, N-(2,4-Difluorophenyl)-N′-[3-(4,4-dimethyl-6-oxo-1,4,5,6-tetrahydro-3-pyridazinyl)phenyl]urea] | 6 | > 125 | 1 | > 125 | 20 | 20 | > 125 | > 125 | 20 | 20 | > 125 | 4 |
| CC1(C)CC(=O)NN=C1c1cc(NC(=O)Nc2cc(F)ccc2F)ccc1O [Example 2, N-(2,5-Difluorophenyl)-N′-[3-(4,4-dimethyl-6-oxo-1,4,5,6-tetrahydro-3-pyridazinyl)-4-hydroxyphenyl]urea] | 1 | 13 | 0.4 | > 125 | 6 | 1.5 | > 125 | 6 | 3 | 3 | > 125 | 2 |
| CCCCC(=O)Nc1ccc(NC(=O)Nc2ccc(F)c(Cl)c2)cc1 [Example 4, N-[4-({[(3-Chloro-4-fluorophenyl)amino]carbonyl}amino)phenyl]pentanamide] | 0.5 | 2 | 0.08 | > 60 | 1 | 0.5 | 2 | 1 | 0.5 | 0.5 | 0.8 | 0.5 |
